Reference: ChEMBL document CHEMBL6109094, “Anti-inflammatory agents design via the fragment hybrid strategy in the discovery of compound c1 for treating ALI and UC” (Eur J Med Chem, 2025)
Calls of active or inactive are those of the source. The calls are words filed in the database; no cut-off is given here.

Tests used:
[1] = test system: RAW264.7; test: Anti-inflammatory activity in mouse RAW264.7 cells assessed as inhibition of LPS-induced IL-6 level at 10 uM preincubated for 30 mins followed by LPS addition measured after 24 hrs by ELISA relative to control; format: functional; conditions: time 24.5 hrs
[2] = test system: RAW264.7; test: Anti-inflammatory activity in mouse RAW264.7 cells assessed as inhibition of LPS-induced TNF-alpha mRNA level preincubated for 2 hrs followed by LPS addition measured after 6 hrs by RT-qPCR analysis; format: functional, cell-based; conditions: dose 1-4 µM, time 8.0 hrs
[3] = test system: RAW264.7; test: Inhibition of MAPK signalling pathway in mouse RAW264.7 cells assessed as reduction in p38 phosphorylation at 2.5 uM preincubated for 2 hrs followed by LPS addition measured after 30 mins by Western blot analysis; format: cell-based; conditions: time 2.5 hrs
[4] = target: T1, Interleukin-1 receptor-associated kinase 4 (Homo sapiens) (UniProt Q9NWZ3); test: Inhibition of IRAK4 (unknown origin) at 10 uM relative to control
T1 sequence (whole entry): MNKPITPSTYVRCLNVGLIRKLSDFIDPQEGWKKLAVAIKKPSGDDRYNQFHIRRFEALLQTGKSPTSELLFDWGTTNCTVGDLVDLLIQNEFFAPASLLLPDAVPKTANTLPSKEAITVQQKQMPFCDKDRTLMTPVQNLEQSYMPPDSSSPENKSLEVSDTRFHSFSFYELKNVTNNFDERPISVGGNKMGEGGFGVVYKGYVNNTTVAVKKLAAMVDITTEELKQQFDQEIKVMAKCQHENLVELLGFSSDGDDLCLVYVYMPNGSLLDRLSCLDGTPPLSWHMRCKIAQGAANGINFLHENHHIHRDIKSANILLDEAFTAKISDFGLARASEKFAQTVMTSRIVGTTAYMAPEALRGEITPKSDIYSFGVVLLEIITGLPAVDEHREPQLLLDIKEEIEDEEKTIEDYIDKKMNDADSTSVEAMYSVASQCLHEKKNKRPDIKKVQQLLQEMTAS

[5] = target: Interleukin-1 receptor-associated kinase 1 (Homo sapiens) (UniProt P51617); test: Inhibition of IRAK1 (unknown origin) at 10 uM relative to control
Chain of Interleukin-1 receptor-associated kinase 1 (Homo sapiens) (P51617 whole entry, looked up): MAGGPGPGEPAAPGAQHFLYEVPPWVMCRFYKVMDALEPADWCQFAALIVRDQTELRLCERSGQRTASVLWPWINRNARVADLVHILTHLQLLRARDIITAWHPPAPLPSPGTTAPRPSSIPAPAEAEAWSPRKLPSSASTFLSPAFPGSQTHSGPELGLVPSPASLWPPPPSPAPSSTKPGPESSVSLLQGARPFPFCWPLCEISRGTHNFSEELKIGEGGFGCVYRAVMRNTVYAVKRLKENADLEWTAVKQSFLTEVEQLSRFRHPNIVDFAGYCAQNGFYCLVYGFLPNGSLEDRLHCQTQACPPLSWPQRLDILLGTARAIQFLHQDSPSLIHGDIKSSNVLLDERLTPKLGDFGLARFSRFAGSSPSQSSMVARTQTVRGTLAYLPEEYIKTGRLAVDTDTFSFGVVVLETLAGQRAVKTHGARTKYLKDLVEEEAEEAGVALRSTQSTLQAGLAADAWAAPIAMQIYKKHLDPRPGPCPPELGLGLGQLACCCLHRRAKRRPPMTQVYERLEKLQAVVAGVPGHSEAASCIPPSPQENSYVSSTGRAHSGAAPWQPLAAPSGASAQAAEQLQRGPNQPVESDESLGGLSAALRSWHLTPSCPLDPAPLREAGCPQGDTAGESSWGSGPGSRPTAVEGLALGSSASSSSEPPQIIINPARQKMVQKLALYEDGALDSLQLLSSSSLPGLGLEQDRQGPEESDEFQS

[6] = test system: Mus musculus; test: Anti-inflammatory activity in C57BL/6 mouse model of LPS-induced ALI assessed as inhibition of TNF-alpha level in BALF at 20 mg/kg, po measured after 6 hrs with administered on every 12 hrs followed by LPS treatment after 30 mins post-compound treatment by ELISA; format: functional, organism-based; conditions: time 6.5 hrs
[7] = test system: Mus musculus; test: Anti-inflammatory activity in C57BL/6 mouse model of LPS-induced ALI assessed as inhibition of IL-6 level in serum at 20 mg/kg, po measured after 6 hrs with administered on every 12 hrs followed by LPS treatment after 30 mins post-compound treatment by ELISA; format: functional, organism-based; conditions: time 6.5 hrs
[8] = test system: Mus musculus; test: Anti-inflammatory activity in C57BL/6 mouse model of LPS-induced ALI assessed as inhibition of TNF-alpha level in serum at 20 mg/kg, po measured after 6 hrs with administered on every 12 hrs followed by LPS treatment after 30 mins post-compound treatment by ELISA; format: functional, organism-based; conditions: time 6.5 hrs
[9] = test system: Mus musculus; test: Anti-inflammatory activity in C57BL/6 mouse model of LPS-induced ALI assessed as decrease in spleen weight at 20 mg/kg, po measured after 6 hrs with administered on every 12 hrs followed by LPS treatment after 30 mins post-compound treatment; format: functional, organism-based; conditions: time 6.5 hrs
[10] = test system: Mus musculus; test: Anti-inflammatory activity in C57BL/6 mouse model of LPS-induced ALI assessed as decrease in lung wet to dry ratio at 20 mg/kg, po measured after 6 hrs with administered on every 12 hrs followed by LPS treatment after 30 mins post-compound treatment; format: functional, organism-based; conditions: time 6.5 hrs
[11] = test system: Mus musculus; test: (§1) Anti-inflammatory activity in C57BL/6 mouse model of LPS-induced ALI assessed as decrease in inflammatory cell infiltration in lung tissue at 20 mg/kg, po measured after 6 hrs with administered on every 12 hrs followed by LPS treatment after 30 mins post-compound treatment by H and E/IHC staining based analysis; format: functional, organism-based; conditions: time 6.5 hrs
[12] = test system: Mus musculus; test: as §1, with “thickening of interstitial edema” for “inflammatory cell infiltration”; format: functional, organism-based; conditions: time 6.5 hrs
[13] = test system: Mus musculus; test: Anti-inflammatory activity in C57BL/6 mouse model of DSS-induced ulcerative colitis assessed as decrease in DAI score at 20 to 40 mg/kg, po administered for 8 days; format: functional, organism-based; conditions: dose 20-40 mg/kg, time 8.0 day
[14] = test system: Mus musculus; test: Anti-inflammatory activity in C57BL/6 mouse model of DSS-induced ulcerative colitis assessed as colon length at 40 mg/kg, po administered for 8 days (reference value: 5.1 cm); format: functional, organism-based; conditions: time 8.0 day
[15] = test system: Mus musculus; test: Anti-inflammatory activity in C57BL/6 mouse model of DSS-induced ulcerative colitis assessed as decrease in serum IL-6 level at 20 to 40 mg/kg, po administered for 8 days by ELISA; format: functional, organism-based; conditions: dose 20-40 mg/kg, time 8.0 day
[16] = test system: Mus musculus; test: Anti-inflammatory activity in C57BL/6 mouse model of DSS-induced ulcerative colitis assessed as decrease in fusion of white pulp of spleen administered orally for 8 days; format: functional, organism-based; conditions: dose 20-40 mg/kg, route po, time 8.0 day
[17] = test system: Mus musculus; test: Anti-inflammatory activity in C57BL/6 mouse model of DSS-induced ulcerative colitis assessed as decrease in macrophage population in red pulp of spleen administered orally for 8 days; format: functional, organism-based; conditions: dose 20-40 mg/kg, route po, time 8.0 day
[18] = test system: Mus musculus; test: Anti-inflammatory activity in C57BL/6 mouse model of DSS-induced ulcerative colitis assessed as decrease in inflammatory cell infiltration in colonic tissue at 20 to 40 mg/kg, po administered for 8 days […]; format: functional, organism-based; conditions: dose 20-40 mg/kg, time 8.0 day
[19] = test system: Mus musculus; test: Anti-inflammatory activity in C57BL/6 mouse model of DSS-induced ulcerative colitis assessed as decrease in inflammatory cell infiltration in splenic tissue at 20 to 40 mg/kg, po administered for 8 days […]; format: functional, organism-based; conditions: dose 20-40 mg/kg, time 8.0 day
[20] = Acute toxicity in C57BL/6 mouse assessed as change in physiological state at 100 to 200 mg/kg, po measured for 10 days; format: organism-based; conditions: in vivo, 240 h, dose 100-200 mg/kg, time 10 day
[21] = Acute toxicity in C57BL/6 mouse assessed as change in daily activities at 100 to 200 mg/kg, po measured for 10 days; format: organism-based; conditions: in vivo, 240 h, dose 100-200 mg/kg, time 10 day
[22] = Acute toxicity in C57BL/6 mouse assessed as change in pathological change in liver at 100 to 200 mg/kg, po measured for 10 days by H and E staining based analysis; format: organism-based; conditions: in vivo, 240 h, dose 100-200 mg/kg, time 10 day
[23] = Acute toxicity in C57BL/6 mouse assessed as change in pathological change in kidney at 100 to 200 mg/kg, po measured for 10 days by H and E staining based analysis; format: organism-based; conditions: in vivo, 240 h, dose 100-200 mg/kg, time 10 day
[24] = AUC (0 to t) in Sprague-Dawley rat at 10 mg/kg, po measured for 24 hrs; format: ADME, organism-based; conditions: in vivo
[25] = Tmax in Sprague-Dawley rat at 10 mg/kg, po measured for 24 hrs; format: ADME, organism-based; conditions: in vivo
[26] = test system: RAW264.7; test: cells; conditions: Mus musculus
Description: Anti-inflammatory activity in mouse RAW264.7 cells assessed as inhibition of LPS-induced TNF-alpha level preincubated for 30 mins followed by LPS addition measured after 24 hrs by ELISA

[27] = test system: J774.A1; test: cells; conditions: Mus musculus
Description: Anti-inflammatory activity in mouse J774.A1 cells assessed as inhibition of LPS-induced IL-6 level preincubated for 30 mins followed by LPS addition measured after 24 hrs by ELISA

[28] = test system: THP-1; test: cells; conditions: Homo sapiens
Description: Anti-inflammatory activity in human THP-1 cells assessed as inhibition of LPS-induced IL-6 level preincubated for 30 mins followed by LPS addition measured after 24 hrs by ELISA

For `COc1cc2c(O[C@H]3CC[C@@H](N)CC3)ncnc2cc1OCc1cccc(Br)c1`, the inhibition at 10 µM [1] was 73.6%, the inhibition [2] was “Dose-dependent-effect” and the inhibition [3] was “Active”. The inhibition [4] was 100%, the inhibition [5] was 88.2% and the inhibition [6] was “Active”. The inhibition [7] was “Active”, the inhibition [8] was “Active” and the Activity [9] was “Active”. For the same molecule, the Activity [10] was “Active”, the Activity [11] was “Active” and the Activity [12] was “Active”. The Activity [13] was “Active”, the Activity [14] was “Active” and the Activity [15] was “Active; Activity Was Comparable To 5-Asa”. The Activity [16] was “Dose-dependent-effect”, the Activity [17] was “Dose-dependent-effect” and the Activity [18] was “Active”. The Activity [19] was “Active”, the Activity [20] was “Non-toxic” and the Activity [21] was “Non-toxic”. The Activity [22] was “Non-toxic”, the Activity [23] was “Non-toxic” and the AUC(0-t) at 24 h [24] was 4270 ng·h/mL. The Tmax [25] was 2 h, the IC50 [26] was 1.52 µM and the IC50 [27] was 1.5 µM. The IC50 [28] was 0.96 µM.
